Results on four compounds are retold here after US8785439B2, “2,5,7-substituted oxazolopyrimidine derivatives” (Sanofi, priority 2010, dated 2014).

This assay concerns the target T1, human Edg-1 receptor (Homo sapiens, UniProt P21453).
T1 construct: FLAG (N); expressed in transfected cells; membrane preparation
As to the kind of experiment: GTP-γ-S assay using human Edg-1 receptors (SPA, CHO Flp-In cell membrane preparation). The format is biochemical. The note with it: test compound at 10 μM; high control 10 μM S1P regarded as 100% activation; background-corrected; triplicate; read-out: % Activation (Edg-1 receptor activation in percent of the activation by 10 μM S1P). An outline of the steps:
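Membranes from CHO Flp-In cells stably overexpressing N-terminally FLAG-tagged human Edg-1 were used in a scintillation-proximity GTP-γ-S binding assay to measure receptor activation by compounds.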

T1 sequence (P21453 whole entry): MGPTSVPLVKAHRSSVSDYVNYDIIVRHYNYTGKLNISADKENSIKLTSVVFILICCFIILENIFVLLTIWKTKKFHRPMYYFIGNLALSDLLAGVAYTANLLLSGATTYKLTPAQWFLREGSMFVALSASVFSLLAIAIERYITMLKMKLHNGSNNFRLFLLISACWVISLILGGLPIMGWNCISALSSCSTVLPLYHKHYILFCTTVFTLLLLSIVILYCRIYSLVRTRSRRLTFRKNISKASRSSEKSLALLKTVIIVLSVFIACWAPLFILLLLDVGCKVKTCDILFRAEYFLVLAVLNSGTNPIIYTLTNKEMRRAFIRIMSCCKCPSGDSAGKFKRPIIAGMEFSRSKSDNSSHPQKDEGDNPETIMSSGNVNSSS

Regarding `CCCOc1nc(Oc2ccc(F)cc2F)nc2oc(-c3cccc(C)c3)nc12` [Example 95, 5-(2,4-difluoro-phenoxy)-7-propoxy-2-(3-methyl-phenyl)-oxazolo[5,4-d]pyrimidine], the activation at 10 µM was found to be 107%.
For the compound `CCCOc1nc(Oc2ccccc2F)nc2oc(-c3cccnc3)nc12` [Example 107, 5-(2-fluoro-phenoxy)-7-propoxy-2-pyridin-3-yl-oxazolo[5,4-d]pyrimidine], the activation at 10 µM was 129%.
`CCCOc1nc(Oc2ccc(C)cc2)nc2oc(-c3cccc(C)c3)nc12` [Example 73, 7-propoxy-2-(3-methyl-phenyl)-5-p-tolyloxy-oxazolo[5,4-d]pyrimidine]: the activation at 10 µM amounted to 80%.
As to `CCCOc1nc(Sc2cc(C)oc2C)nc2oc(-c3cc(F)ccc3Cl)nc12` [Example 151, 2-(2-chloro-5-fluoro-phenyl)-5-(2,5-dimethyl-furan-3-ylsulfanyl)-7-propoxy-oxazolo[5,4-d]pyrimidine], the activation at 10 µM was 66%.
